What all share (assay type): cell-based, human
For one assay, the system named is E-selectin. In words: TNF-α-induced E-selectin cell surface expression in HMVEC, flow cytometry. Particulars: Table 9, JNK antisense series. The procedure:
(§1) Human dermal microvascular cells (HMVEC-d; Clonetics, San Diego, Calif.) were cultivated in endothelial basal media (EBM, Clonetics) supplemented with 10% fetal bovine serum (HyClone, Logan, Utah). Cells were grown in 100 mm petri dishes until 70-80% confluent, then washed with PBS and OPTI-MEM (Life Technologies, Inc., Gaithersburg, Md.). The cells were then incubated in the presence of OPTI-MEM and […] LIPOFECTIN (a 1:1 (w/w) liposome formulation of the cationic lipid N-[1-(2,3-dioleyloxy)propyl]-n,n,n-trimethylammonium chloride (DOTMA), and dioleoyl phosphotidylethanolamine (DOPE) in membrane filtered water (Life Technologies, Gaithersburg, Md.), per 100 nM of oligonucleotide followed by addition of oligonucleotide at the appropriate concentrations.
The effect of c-raf and Ha-ras antisense oligonucleotide treatment on the induction of E-selectin by TNF-α was examined. HMVEC cells were treated with either the c-raf or Ha-ras antisense compound under dose-response conditions or over time at a single dose level followed by stimulation of E-selectin expression by TNF-α for 5 hours. The cell surface expression of E-selectin was determined by flow cytometry analysis. Following oligonucleotide treatment, cells were detached from the plates and analyzed for surface expression of cell adhesion molecules using a Becton Dickinson (San Jose, Calif.) FACScan. TNF-α and FITC conjugated antibody for E-selectin were obtained from R & D Systems (Minneapolis, Minn.). PE-conjugated antibody for ICAM-1 was obtained from Pharmingen (San Diego, Calif.). VCAM-1 antibody was obtained from Santa Cruz Biotechnology, Santa Cruz, Calif. Cell surface expression was calculated using the mean value of fluorescence intensity using 3,000-5,000 cells stained with the appropriate antibody for each sample and time point. Results are expressed as percentage of control (cell surface expression induced by TNF-α in cells that were not treated with oligonucleotides) based upon mean fluorescence intensity.
The effects of c-raf, Ha-ras, and a E-selectin antisense oligonucleotide on TNF-α-induced E-selectin cell surface expression under kinetic conditions were examined. […] To test this, cells were treated, separately, with antisense oligonucleotides to E-selectin, ICAM-1 and VCAM-1 and allowed to recover prior to TNF-α treatment. […] E-selectin cell surface expression was measured by flow cytometry analysis after 5 hours of TNF-A treatment.
On the technique in general: Flow cytometry measures light scatter and fluorescence of single cells or particles in a stream.

Another assay has as its system JNK1 mRNA. In words: JNK1 mRNA expression by Northern blot. Particulars: at the concentration tested, FIG. 4. The procedure: as §1
(§2) For determination of mRNA levels by Northern blot, total RNA was prepared from cells by the guanidinium isothiocyanate procedure or by the Qiagen RNAEASY method (Qiagen, Santa Clarita, Calif.) at the indicated times after initiation of oligonucleotide treatment. Northern blot analysis was performed as described in Current Protocols in Molecular Biology (Ausubel, F. M., et al., (eds), 1987, Greene Publishing Assoc. and Wiley Interscience, New York). […] RNA was quantified and normalized to G3PDH mRNA levels using a Molecular Dynamic PHOSPHORIMAGER (Sunnyvale, Calif.). […]

A further assay relates to JNK2 mRNA. In words: JNK2 mRNA expression by Northern blot. Conditions: at the concentration tested, FIG. 4. The protocol: as §1, §2
Another assay relates to JNK2. In words: TNF-α-mediated JNK2 kinase activity, isoform-specific JNK assay. Particulars: FIG. 5. The procedure:
To examine the effect of the c-raf antisense oligonucleotide (ISIS 12854, SEQ ID NO. 2) on ERK, JNK, and p38 MAPK activities stimulated by TNF-α, in vitro kinase assays were performed on extracts derived from cells treated with ISIS 12854 (SEQ ID NO. 2). Cells were treated with oligonucleotides and induced with cytokines. At the indicated time, cells were lysed on ice and debris was removed by centrifugation. Protein concentration was measured by Bradford assay. Lysate containing equal amounts of protein were incubated with primary antibody-agarose conjugates (ERK and p38 assay; Santa Cruz Biotechnology, Santa Cruz, Calif.), or with JNK1-specific or JNK2-specific antibodies (JNK assay; Upstate Biotechnology, Lake Placid, N.Y.), overnight at 4° C.
For isoform-specific JNK assays, anti-rabbit IgG conjugated with agarose beads was added to cell extracts following JNK antibody treatment and wash steps and incubated for 2 hours at 4° C. After washing with lysis buffer and kinase buffer, the pelleted beads were incubated with 1 μg of substrate (Elk-1 for ERK, ATF-2 for p38, and c-Jun for JNK MAPK) and 100 […] of ATP for 20 minutes at 37° C. MAPK and JNK assay kits, ATF-2 fusion protein, and antibodies for ATF-2, Elk-1 phospho-ATF-2 were purchased from New England BioLabs (Boston, Mass.). Reactions were terminated by the addition of 3×SDS sample buffer followed by boiling. […]

Take “GoToCoCoGoGsGsCsCsAsGsGsCsCsAsAoAoGoToC [ISIS 15354]”: the “% Cell Surface Expression (E-selectin)” value in the assay on E-selectin (20 nM) was 32%; in the assay with E-selectin (50 nM), 29%; in the assay with E-selectin (100 nM), 33%. The “% Cell Surface Inhibition (E-selectin)” value amounted to 68% in the assay with E-selectin (20 nM), 71% in the assay on E-selectin (50 nM) and 67% in the assay with E-selectin (100 nM). Further, the “JNK1 mRNA expression” value in the assay with JNK1 mRNA is “without affecting”. For the same substance, the “JNK2 mRNA expression” value in the assay on JNK2 mRNA is “nearly complete inhibition”. Also, the “TNF-α-mediated induction of JNK2 activity” value in the assay with JNK2 is “effectively reduced”.

Source of the values: patent publication US6114517A, “Methods of modulating tumor necrosis factor α-induced expression of cell adhesion molecules” (Isis Pharmaceuticals Inc., priority 1998, dated 2000).
